Assay results published in ChEMBL document CHEMBL3045163, “Synthesis of benzothiazole derivatives having acetamido and carbothioamido pharmacophore as anticonvulsant agents” (Med Chem Res, 2012).
Calls of active or inactive are those of the source. The calls are words filed in the database; no cut-off is given here.

How the values were obtained:
Mus musculus [1] = assay: Antidepressant activity in Mus musculus (mouse) assessed as immobility time at 100 mg/kg, ip administered 60 min before test measured during last 4 min of 6 min testing period; assay type: functional; conditions: route intraperitoneal
[2] = Octanol-phosphate buffer partition coefficient, log P of the compound; assay type: physicochemical
Mus musculus [3] = assay: Neurotoxicity in ip dosed Mus musculus (mouse) assessed as motor impairment after 4 hr by rotorod test; assay type: toxicity, organism-based; conditions: in vivo
Mus musculus [4] = assay: Neurotoxicity in ip dosed Mus musculus (mouse) assessed as motor impairment after 0.5 hr by rotorod test; assay type: toxicity, organism-based; conditions: in vivo
Mus musculus [5] = assay: Anticonvulsant activity in ip dosed Mus musculus (mouse) assessed as protection against subcutaneous pentylenetetrazole-induced seizure after 4 hr; assay type: functional; conditions: read-out: MED
Mus musculus [6] = assay: Anticonvulsant activity in ip dosed Mus musculus (mouse) assessed as protection against subcutaneous pentylenetetrazole-induced seizure after 0.5 hr; assay type: functional; conditions: read-out: MED
Mus musculus [7] = assay: Anticonvulsant activity in ip dosed Mus musculus (mouse) assessed as protection against maximal electroshock-induced seizure after 4 hr; assay type: functional; conditions: read-out: MED
Mus musculus [8] = assay: Anticonvulsant activity in ip dosed Mus musculus (mouse) assessed as protection against maximal electroshock-induced seizure after 0.5 hr; assay type: functional; conditions: read-out: MED
Mus musculus [9] = assay: Anticonvulsant activity in Mus musculus (mouse) assessed as protection against subcutaneous pentylenetetrazole-induced seizure at 300 mg/kg, ip after 4 hr; assay type: functional, organism-based; set-up: dose 300 mg/kg
Mus musculus [10] = assay: Anticonvulsant activity in Mus musculus (mouse) assessed as protection against subcutaneous pentylenetetrazole-induced seizure at 300 mg/kg, ip after 0.5 hr; assay type: functional, organism-based; set-up: dose 300 mg/kg
Mus musculus [11] = assay: Anticonvulsant activity in Mus musculus (mouse) assessed as protection against maximal electroshock-induced seizure at 300 mg/kg, ip after 4 hr; assay type: functional, organism-based; set-up: dose 300 mg/kg
Mus musculus [12] = assay: Anticonvulsant activity in Mus musculus (mouse) assessed as protection against maximal electroshock-induced seizure at 300 mg/kg, ip after 0.5 hr; assay type: functional, organism-based; set-up: dose 300 mg/kg
Mus musculus [13] = assay: Neurotoxicity in Mus musculus (mouse) assessed as motor impairment at 300 mg/kg, ip after 0.5 hr by rotorod test; assay type: toxicity, organism-based; set-up: dose 300 mg/kg, route intraperitoneal; conditions: in vivo
Mus musculus [14] = assay: Neurotoxicity in Mus musculus (mouse) assessed as motor impairment at 300 mg/kg, ip after 4 hr by rotorod test; assay type: toxicity, organism-based; set-up: dose 300 mg/kg, route intraperitoneal; conditions: in vivo

| SMILES | Time (Mus musculus [1]) | logP [2] | MED (Mus musculus [3]) | MED (Mus musculus [4]) | minimal effective dose (Mus musculus [5]) | minimal effective dose (Mus musculus [6]) | minimal effective dose (Mus musculus [7]) | minimal effective dose (Mus musculus [8]) | Activity (Mus musculus [9]) | Activity (Mus musculus [10]) | Activity (Mus musculus [11]) | Activity (Mus musculus [12]) | Activity (Mus musculus [13]) | Activity (Mus musculus [14]) |
| --- | --- | --- | --- | --- | --- | --- | --- | --- | --- | --- | --- | --- | --- | --- |
| Fc1ccc(/C=N/NC(=S)Nc2nc3ccc(Cl)cc3s2)cc1 | 188 s | 5.22 | 100 mg/kg | 100 mg/kg | 100 mg/kg | 100 mg/kg | 30 mg/kg | 30 mg/kg | – | – | – | – | – | – |
| CN(C)c1ccc(/C=N/NC(=S)Nc2nc3ccc(Cl)cc3s2)cc1 | 172 s | 5.24 | 100 mg/kg | 100 mg/kg | – | – | – | – | inactive | inactive | inactive | inactive | – | – |
| NC(=O)N1c2ccccc2C=Cc2ccccc21 [CARBAMAZEPINE] | 179 s | – | 300 mg/kg | 100 mg/kg | 100 mg/kg | 100 mg/kg | 100 mg/kg | 30 mg/kg | – | – | – | – | – | – |
| O=C(CNc1ccc(Cl)cc1)Nc1nc2ccc(Cl)cc2s1 | 161 s | 4.24 | 100 mg/kg | – | – | – | – | 100 mg/kg | inactive | inactive | inactive | – | Non-toxic | – |
| CC(C)(C)NCC(=O)Nc1nc2ccc(Cl)cc2s1 | 129 s | 3.02 | 300 mg/kg | – | 300 mg/kg | 100 mg/kg | 100 mg/kg | 30 mg/kg | – | – | – | – | Non-toxic | – |
| S=C(N/N=C/c1ccccc1Cl)Nc1nc2ccc(Cl)cc2s1 | 177 s | 5.46 | 100 mg/kg | – | – | – | – | 300 mg/kg | inactive | inactive | inactive | – | Non-toxic | – |
| COc1ccc(/C=N/NC(=S)Nc2nc3ccc(Cl)cc3s2)cc1 | 181 s | 5.16 | 300 mg/kg | 100 mg/kg | – | – | 300 mg/kg | – | inactive | inactive | – | inactive | – | – |
| S=C(N/N=C/c1ccc(Cl)cc1)Nc1nc2ccc(Cl)cc2s1 | 191 s | 5.52 | – | 300 mg/kg | – | – | – | 300 mg/kg | inactive | inactive | inactive | – | – | Non-toxic |
| O=C(CN1CCCCC1)Nc1nc2ccc(Cl)cc2s1 | 145 s | 3.16 | 300 mg/kg | – | – | 100 mg/kg | 100 mg/kg | 30 mg/kg | inactive | – | – | – | Non-toxic | – |
| O=C(CN(c1ccccc1)c1ccccc1)Nc1nc2ccc(Cl)cc2s1 | 196 s | 6.12 | – | 300 mg/kg | – | – | – | 300 mg/kg | inactive | inactive | inactive | – | – | Non-toxic |
| S=C(N/N=C/c1ccccc1)Nc1nc2ccc(Cl)cc2s1 | 162 s | 4.86 | 300 mg/kg | 300 mg/kg | – | – | 300 mg/kg | – | inactive | inactive | – | inactive | – | – |
| O=C(CNc1ccc(F)cc1)Nc1nc2ccc(Cl)cc2s1 | 169 s | 3.88 | – | – | 300 mg/kg | 100 mg/kg | 100 mg/kg | 100 mg/kg | – | – | – | – | Non-toxic | Non-toxic |
| O=C1NC(=O)C(c2ccccc2)(c2ccccc2)N1 [PHENYTOIN] | – | – | 100 mg/kg | 100 mg/kg | – | – | 30 mg/kg | 30 mg/kg | inactive | inactive | – | – | – | – |
| O=C(Cn1ccc2ccccc21)Nc1nc2ccc(Cl)cc2s1 | 152 s | 4.62 | 300 mg/kg | 100 mg/kg | 300 mg/kg | – | 300 mg/kg | 100 mg/kg | – | inactive | – | – | – | – |
| O=[N+]([O-])c1ccc(/C=N/NC(=S)Nc2nc3ccc(Cl)cc3s2)cc1 | 157 s | 4.68 | 300 mg/kg | 300 mg/kg | 300 mg/kg | 300 mg/kg | – | 100 mg/kg | – | – | inactive | – | – | – |
| Oc1ccc(/C=N/NC(=S)Nc2nc3ccc(Cl)cc3s2)cc1 | 169 s | 4.78 | 100 mg/kg | – | – | 100 mg/kg | – | 100 mg/kg | inactive | – | inactive | – | Non-toxic | – |
| O=C(CN1CCOCC1)Nc1nc2ccc(Cl)cc2s1 | 140 s | 2.32 | – | – | 100 mg/kg | 100 mg/kg | 30 mg/kg | 30 mg/kg | – | – | – | – | Non-toxic | Non-toxic |
| O=C(Cn1ccnc1)Nc1nc2ccc(Cl)cc2s1 | 137 s | 2.14 | – | – | 100 mg/kg | 100 mg/kg | 30 mg/kg | 30 mg/kg | – | – | – | – | Non-toxic | Non-toxic |
